Assay results from the supplement of paper PMC10627819.

Columns and labels:
S. aureus Newman = experiment: Bliss interaction score (quartile over a dose matrix) (fitness difference); higher = more antagonism (negative = synergy)
Method in brief: (§1)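 Fitness was defined as normalised growth: OD595 at the start of stationary phase divided by the plate's robust no-drug mean and capped at 1. Single-drug fitness was inferred from combination measurements. The Bliss score is observed fitness minus the product of the single-drug values, summarised by quartiles across technical, biological and donor/recipient replicates.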

S. pneumoniae D39V [1] = experiment: as above
Method in brief: as §1

S. aureus DSM 20231 = experiment: as above
Method in brief: as §1

B. subtilis 168 = experiment: as above
Method in brief: as §1

S. pneumoniae D39V [2] = experiment: fitness (endpoint OD595 vs no drug) (fraction); higher = more growth
Method in brief: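 In 384-well plates at 37 °C, cultures began at OD595 0.01 in 30 µl, with 55 µl used for S. pneumoniae. OD595 readings every 30 min for 14 h were corrected by the first reading. Fitness divides the stationary-phase transition optical density by the robust mean of no-drug control wells. The result is capped at 1.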
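Wherever Bliss interaction score (quartile over a dose matrix) is given: first quartile when negative (synergy) and third quartile when positive (antagonism).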
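Wherever fitness (endpoint OD595 vs no drug) is given: OD595 on entry to stationary phase over no-drug wells; at most 1.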

C[C@H]1COc2c(N3CCN(C)CC3)c(F)cc3c(=O)c(C(=O)O)cn1c23 [Levofloxacin] + Clc1ccc(COC(Cn2ccnc2)c2ccc(Cl)cc2Cl)c(Cl)c1 [Miconazole]
Conditions | Bliss interaction score
B. subtilis 168 | 0.0649
S. aureus DSM 20231 | -0.0265
S. aureus Newman | 0.0464
S. pneumoniae D39V [1] | 0.11

S. pneumoniae D39V [2]
Conditions | fitness
first compound 0.1725 µg/mL, partner 1.25 µg/mL | 0.955
first compound 0.1725 µg/mL, partner 2.5 µg/mL | 0.976
first compound 0.1725 µg/mL, partner 5 µg/mL | 0.963
first compound 0.2 µg/mL, partner 1.073 µg/mL | ≥ 1
first compound 0.2 µg/mL, partner 2.145 µg/mL | ≥ 1
first compound 0.2 µg/mL, partner 4.29 µg/mL | 0.978
first compound 0.345 µg/mL, partner 1.25 µg/mL | 0.866
first compound 0.345 µg/mL, partner 2.5 µg/mL | 0.856
first compound 0.345 µg/mL, partner 5 µg/mL | 0.859
first compound 0.4 µg/mL, partner 1.073 µg/mL | 0.934
first compound 0.4 µg/mL, partner 2.145 µg/mL | 0.941
first compound 0.4 µg/mL, partner 4.29 µg/mL | 0.825
first compound 0.69 µg/mL, partner 1.25 µg/mL | 0.576
first compound 0.69 µg/mL, partner 2.5 µg/mL | 0.432
first compound 0.69 µg/mL, partner 5 µg/mL | 0.578
first compound 0.8 µg/mL, partner 4.29 µg/mL | 0.769

CN(C)C(=O)C(CCN1CCC(O)(c2ccc(Cl)cc2)CC1)(c1ccccc1)c1ccccc1 [Loperamide] + CN[C@H](CC(C)C)C(=O)N[C@H]1C(=O)N[C@@H](CC(N)=O)C(=O)N[C@H]2C(=O)N[C@H]3C(=O)N[C@H](C(=O)N[C@H](C(=O)O)c4cc(O)cc(O)c4-c4cc3ccc4O)[C@H](O)c3ccc(c(Cl)c3)Oc3cc2cc(c3O[C@@H]2O[C@H](CO)[C@@H](O)[C@H](O)[C@H]2O[C@H]2C[C@](C)(N)[C@H](O)[C@H](C)O2)Oc2ccc(cc2Cl)[C@H]1O [Vancomycin]
Conditions | Bliss interaction score
B. subtilis 168 | -0.0281
S. aureus DSM 20231 | -0.0861
S. aureus Newman | 0.0922
S. pneumoniae D39V [1] | -0.184

S. pneumoniae D39V [2]
Conditions | fitness
first compound 17.14 µg/mL, partner 0.5 µg/mL | 0.0584
first compound 20 µg/mL, partner 0.03125 µg/mL | ≥ 1
first compound 20 µg/mL, partner 0.0625 µg/mL | 0.937
first compound 34.28 µg/mL, partner 0.25 µg/mL | 0.77
first compound 34.28 µg/mL, partner 0.5 µg/mL | 0.0876
first compound 40 µg/mL, partner 0.03125 µg/mL | 0.959
first compound 40 µg/mL, partner 0.0625 µg/mL | 0.866
first compound 80 µg/mL, partner 0.125 µg/mL | 0.28

S. pneumoniae D39V [2], first compound 68.57 µg/mL, one replicate
Conditions | fitness
partner 0.125 µg/mL | 0.942
partner 0.25 µg/mL | 0.853
partner 0.5 µg/mL | 0.0639

CO/N=C(\C(=O)N[C@@H]1C(=O)N2C(C(=O)[O-])=C(C[N+]3(C)CCCC3)CS[C@H]12)c1csc(N)n1 [Cefepime] + O=C1CN(/N=C/c2ccc([N+](=O)[O-])o2)C(=O)N1 [Nitrofurantoin]
Conditions | Bliss interaction score
B. subtilis 168 | -0.125
S. aureus DSM 20231 | 0.0422
S. aureus Newman | 0.0549
S. pneumoniae D39V [1] | 0.188

fitness, S. pneumoniae D39V [2]
Conditions | first compound 0.007 µg/mL | first compound 0.0078 µg/mL | first compound 0.014 µg/mL | first compound 0.0155 µg/mL | first compound 0.028 µg/mL | first compound 0.031 µg/mL
partner 1.285 µg/mL | – | 0.957 | – | 0.943 | – | 0.811
partner 2 µg/mL | 0.988 | – | 0.979 | – | 0.912 | –
partner 2.57 µg/mL | – | 0.962 | – | 0.942 | – | 0.738
partner 4 µg/mL | 0.991 | – | 0.955 | – | 0.887 | –
partner 8 µg/mL | 0.949 | – | 0.927 | – | 0.843 | –

S. pneumoniae D39V [2], partner 5.14 µg/mL, one replicate
Conditions | fitness
first compound 0.0078 µg/mL | 0.959
first compound 0.0155 µg/mL | 0.993
first compound 0.031 µg/mL | 0.825

C[C@H]1COc2c(N3CCN(C)CC3)c(F)cc3c(=O)c(C(=O)O)cn1c23 [Levofloxacin] + O=C1CN(/N=C/c2ccc([N+](=O)[O-])o2)C(=O)N1 [Nitrofurantoin]
Conditions | Bliss interaction score
B. subtilis 168 | 0.0577
S. aureus DSM 20231 | 0.027
S. aureus Newman | -0.0599
S. pneumoniae D39V [1] | -0.0691

fitness, S. pneumoniae D39V [2]
Conditions | first compound 0.1725 µg/mL | first compound 0.2 µg/mL | first compound 0.345 µg/mL | first compound 0.4 µg/mL | first compound 0.69 µg/mL | first compound 0.8 µg/mL
partner 1.285 µg/mL | – | 0.894 | – | 0.842 | – | 0.558
partner 2 µg/mL | 0.921 | – | 0.852 | – | 0.568 | –
partner 2.57 µg/mL | – | 0.909 | – | 0.865 | – | 0.524
partner 4 µg/mL | 0.92 | – | 0.797 | – | 0.535 | –
partner 8 µg/mL | 0.799 | – | 0.688 | – | 0.38 | –

S. pneumoniae D39V [2], partner 5.14 µg/mL, one replicate
Conditions | fitness
first compound 0.2 µg/mL | 0.86
first compound 0.4 µg/mL | 0.75
first compound 0.8 µg/mL | 0.317

CO/N=C(\C(=O)N[C@@H]1C(=O)N2C(C(=O)[O-])=C(C[N+]3(C)CCCC3)CS[C@H]12)c1csc(N)n1 [Cefepime] + CN(C)C(=O)C(CCN1CCC(O)(c2ccc(Cl)cc2)CC1)(c1ccccc1)c1ccccc1 [Loperamide]
Conditions | Bliss interaction score
B. subtilis 168 | -0.171
S. aureus DSM 20231 | 0.156
S. aureus Newman | 0.0533
S. pneumoniae D39V [1] | -0.0863

S. pneumoniae D39V [2]
Conditions | fitness
first compound 0.007 µg/mL, partner 20 µg/mL | ≥ 1
first compound 0.007 µg/mL, partner 40 µg/mL | ≥ 1
first compound 0.007 µg/mL, partner 80 µg/mL | 0.913
first compound 0.0078 µg/mL, partner 17.14 µg/mL | ≥ 1
first compound 0.0078 µg/mL, partner 34.28 µg/mL | 0.969
first compound 0.014 µg/mL, partner 20 µg/mL | ≥ 1
first compound 0.014 µg/mL, partner 40 µg/mL | ≥ 1
first compound 0.0155 µg/mL, partner 17.14 µg/mL | 0.952
first compound 0.0155 µg/mL, partner 34.28 µg/mL | 0.854
first compound 0.028 µg/mL, partner 20 µg/mL | 0.911
first compound 0.028 µg/mL, partner 40 µg/mL | 0.841

S. pneumoniae D39V [2], partner 68.57 µg/mL, one replicate
Conditions | fitness
first compound 0.0078 µg/mL | ≥ 1
first compound 0.0155 µg/mL | ≥ 1
first compound 0.031 µg/mL | 0.48
